According to patent publication US20250057864A1, “COMPOSITION FOR IMPROVING EXERCISE PERFORMANCE COMPRISING GYPENOSIDE COMPOUND AS ACTIVE INGREDIENT” (BTC CORPORATION, priority 2022, published 2025):

What was measured:
[1] = tested on: p-AMPK, p-Sirt1, p-p38, p-Nrf2 in C2C12 cells; assay: Western blot of proteins related with PGC-1α activation in C2C12 cells; assay type: cell-based, mice; details: C2C12, 0.36 μg/mL (Cr 5 μg/mL); for Protein expression level p-AMPK / Protein expression level p-Nrf2 / Protein expression level p-Sirt1 / Protein expression level p-p38: 7 days; for p-AMPK/AMPK ratio / p-Nrf2/Nrf2 ratio / p-Sirt1/Sirt1 ratio / p-p38/p38 ratio: control G1 = 1.00
Experimental: (§1) C2C12 cells were dispensed into a 6-well plate at 2×10^5 cells/well and stabilized for 24 hours. In order to investigate the effect of each test substance on muscle cell differentiation, each test substance was added to the myocyte differentiation medium. The cells were cultured for 4 days (mRNA analysis) or 7 days (protein analysis) after exchanging the cell culture medium with the myocyte differentiation medium treated with each test substance, as shown in Table 2.
C2C12 cells were dispensed into a 6-well plate at 2×10^5 cells/well and stabilized for 24 hours. The cells were cultured for 7 days after exchanging the culture medium with a myocyte differentiation medium containing the test substance. After the induction of differentiation for 7 days, the cells were homogenized by adding a lysis buffer (20 mmol/L HEPES, pH 7.5, 150 mmol/L NaCl, 1% Triton X-100, 1 mmol/L EDTA, 1 mmol/L EGTA, 100 mmol/L NaF, 10 mmol/L sodium pyrophosphate, 1 mmol/L Na3VO4, 20 μg/mL aprotinin, 10 μg/mL antipain, 10 μg/mL leupeptin, 80 μg/mL benzamidine HCl, 0.2 mmol/L PMSF) and a total cell lysate was obtained through centrifugation. The protein quantity of the total cell lysate was measured using a BCA protein assay kit (Thermo Scientific). The total cell lysate (50 μg) was separated by 10% sodium dodecyl sulfate polyacrylamide gel electrophoresis (SDS-PAGE) and then transferred to a polyvinylidene difluoride membrane (Milipore). The membrane was blocked for 1 hour in 5% skim milk-TBST (20 mmol/L Tris·HCl, pH 7.5, 150 mmol/L NaCl, 0.1% Tween 20) and then incubated for 16 hours at 4° C. or for 1 hour at room temperature after adding antibodies. Thereafter, horseradish peroxidase (HRP)-linked anti-rabbit IgG or HRP-linked anti-mouse IgG was added and the mixture was stirred for 1 hour. The detected protein bands were visualized by enhanced chemiluminescence using a Luminata™ Forte Western HRP substrate (Millipore). The level of protein expression was quantified using the ImageQuant™ LAS 500 imaging system (GE Healthcare Bio-Sciences AB).
The result of western blot analysis conducted using the total cell lysate obtained by treating with the test substance to investigate the effect of the test substance on the changes in proteins associated with PGC-1α activation is shown in Table 6.
Based on the western blot analysis result, the activity of each protein was evaluated from the ratio of activation.

[2] = tested on: TFam, CPT1-β, mtDNA in C2C12 cells; assay: mRNA expression related with mitochondrial replication in C2C12 cells (real-time RT-PCR); assay type: cell-based, mice; details: C2C12, 0.36 μg/mL (Cr 5 μg/mL), control G1 = 1.00
Experimental: as §1
C2C12 cells were dispensed into a 6-well plate at 2×10^5 cells/well and stabilized for 24 hours. The cells were cultured for 2 or 4 days after replacing the cell culture with a myocyte differentiation medium containing the test substance. After collecting the cells, total RNA was isolated using an RNeasy Plus Mini kit (QIAGEN), and quantified using a micro-volume spectrophotometer (BioSpec-nano, Shimadzu). RNAs with an OD260/280 value greater than 1.8 were used for experiment.
After obtaining cDNA from the total RNA (2 μg) using a HyperScript™ RT master mix kit (GeneAll Biotechnology), real-time PCR was performed using a Rotor-Gene 300 PCR kit (Corbett Research) and a Rotor-Gene™ SYBR Green kit (QIAGEN). Quantitative analysis of the gene expression was performed using the Rotor-Gene 6000 Series System Software program (Corbett Research).
The effect of the treatment of C2C12 cells with the test substances on the mRNA expression of mtDNA, Tfam and CPT-1β associated with mitochondrial replication was investigated.

ICR mice [3] = assay: Weight of liver and muscles; assay type: in vivo; details: 6 weeks
Experimental: After an acclimatization period of 1 week, healthy animals were selected and divided into 6 groups according to the randomized block design. The animals were divided into (G1) a non-exercise control group, (G2) a non-exercise+7 mg/kg body weight (BW) Example 1 group, (G3) a non-exercise+7 mg/kg BW Example 2 group, (G4) a non-exercise+7 mg/kg BW Example 3 group, (G5) a non-exercise+7 mg/kg BW Example 4 group, (G6) an exercise control group, (G7) an exercise+7 mg/kg BW Example 1 group, (G8) an exercise+7 mg/kg BW Example 2 group, (G9) an exercise+7 mg/kg BW Example 3 group, (G10) an exercise+7 mg/kg BW Example 4 group, and (G11) an exercise+75 mg/kg BW Cr dose group. Each test group consisted of 10 animals.
Before sacrificing, the experimental animal was anesthetized using an anesthetic prepared by dilution of tribromoethanol with tertiary amyl alcohol and blood was taken from the eye socket. The blood was placed in a serum-separating tube (Becton Dickinson) and left at room temperature for 30 minutes, centrifuged at 5,000 rpm for 10 minutes to separate the serum, and kept at −70° C. until analysis. After the blood sampling, the experimental animal was sacrificed and the liver and skeletal muscles [quadriceps femoris muscle (QF), gastrocnemius muscle (GA), soleus muscle (SOL), and extensor digitorum longus muscle (EDL)] were extracted. Their weight was measured after rinsing with cold physiological saline and removing excess water with filter paper. A portion of the soleus muscle (SOL) was fixed with 4% paraformaldehyde (PFA) and then embedded in paraffin for histoimmunological staining. Also, total RNA was isolated from a portion of the soleus muscle and subjected to real-time RT-PCR. Proteins were isolated from a portion of the gastrocnemius muscle (GA) and subjected to western blot. The remaining tissue was kept at −70° C. until analysis.
After the end of the test, the weight of the muscles and liver of the experimental animals was measured.
Since the body weight of the experimental animals was decreased due to exercise and the administration of the test substances, the relative weight of the muscles and liver per 100 g of body weight was calculated and shown in Table 23.

ICR mice [4] = assay: Blood biochemistry (serum analysis) at end of test; assay type: in vivo
Text: After an acclimatization period of 1 week, healthy animals were selected and divided into 6 groups according to the randomized block design. […] Each test group consisted of 10 animals.
The contents of glucose, triglycerides (TG), total cholesterol (CHOL), LDL-cholesterol (LDL-CHOL), HDL-cholesterol (HDL-CHOL), blood urea nitrogen (BUN) and creatinine (CREA) in the serum, and the activities of creatine kinase (CK), lactate dehydrogenase (LDH), alanine aminotransferase (ALT), aspartate aminotransferase (AST) and alkaline phosphatase (ALP) were measured using a blood biochemistry analyzer (KoneLab 20 XT, Thermo Fisher Scientific).

[5] = treadmill exercise, 7 mg/kg BW (Cr 75 mg/kg BW)
[6] = serum, non-exercise, 7 mg/kg BW, 6 weeks
[7] = serum, treadmill exercise, 7 mg/kg BW (Cr 75 mg/kg BW), 6 weeks

Compound	Protein expression level p-AMPK [1]	Protein expression level p-Nrf2 [1]	Protein expression level p-Sirt1 [1]	Protein expression level p-p38 [1]	p-AMPK/AMPK ratio [1]	p-Nrf2/Nrf2 ratio [1]	p-Sirt1/Sirt1 ratio [1]	p-p38/p38 ratio [1]	mRNA expression CPT1-β [2]	mRNA expression Tfam [2]	Relative weight of extensor digitorum longus muscle (EDL) (ICR mice [3]; [5])	Relative weight of gastrocnemius muscle (GA) (ICR mice [3]; [5])	Relative weight of quadriceps femoris muscle (QF) (ICR mice [3]; [5])	Relative weight of soleus muscle (SOL) (ICR mice [3]; [5])	Weight of extensor digitorum longus muscle (EDL) (ICR mice [3]; [5])	Weight of gastrocnemius muscle (GA) (ICR mice [3]; [5])	Weight of quadriceps femoris muscle (QF) (ICR mice [3]; [5])	Weight of soleus muscle (SOL) (ICR mice [3]; [5])	CREA (ICR mice [4]; [7])	other results
CC(C)=CCC[C@](C)(O)C1CC[C@]2(C)C1[C@H](O)CC1[C@@]3(C)C[C@@H](O)C(OC4OC(CO)C(O)C(O)C4OC4OC(CO)C(O)C(O)C4O)C(C)(C)C3CC[C@]12C (some centres unmarked) [Example 1, Gypenoside L]	117.7 ± 7.2 % of control group	135.1 ± 1.6 % of control group	143.4 ± 5.6 % of control group	133.1 ± 7.1 % of control group	1.27 ± 0.25	1.50 ± 0.11	1.38 ± 0.06	1.27 ± 0.07	1.83 ± 0.41	0.91 ± 0.10	0.056 ± 0.003 g/100 g body weight	1.122 ± 0.032^+ g/100 g body weight	0.827 g/100 g body weight	0.064 g/100 g body weight	0.020 ± 0.001 g	0.406 ± 0.012 g	0.296 g	0.023 g	0.348 mg/dL	mRNA expression mtDNA [2]: 1.29 ± 0.41; Relative weight of extensor digitorum longus muscle (EDL) (ICR mice [3]; non-exercise, 7 mg/kg BW): 0.056 ± 0.002 g/100 g body weight; Relative weight of gastrocnemius muscle (GA) (ICR mice [3]; non-exercise, 7 mg/kg BW): 1.040 ± 0.036^ g/100 g body weight; Relative weight of quadriceps femoris muscle (QF) (ICR mice [3]; non-exercise, 7 mg/kg BW): 0.742 g/100 g body weight; Relative weight of soleus muscle (SOL) (ICR mice [3]; non-exercise, 7 mg/kg BW): 0.056 g/100 g body weight; Weight of extensor digitorum longus muscle (EDL) (ICR mice [3]; non-exercise, 7 mg/kg BW): 0.021 ± 0.001 g; Weight of gastrocnemius muscle (GA) (ICR mice [3]; non-exercise, 7 mg/kg BW): 0.392 ± 0.010 g; Weight of quadriceps femoris muscle (QF) (ICR mice [3]; non-exercise, 7 mg/kg BW): 0.282 g; Weight of soleus muscle (SOL) (ICR mice [3]; non-exercise, 7 mg/kg BW): 0.021 g; BUN (ICR mice [4]; 7 mg/kg, 1008 h): 7.10 ± 0.40 mg/dL; CK (ICR mice [4]; 7 mg/kg, 1008 h): 471.7 U/L; LDH (ICR mice [4]; 7 mg/kg, 1008 h): 1,198 U/L; BUN (ICR mice [4]; [6]): 7.54 ± 0.47 mg/dL; CK (ICR mice [4]; [6]): 416.7 U/L; CREA (ICR mice [4]; [6]): 0.312 mg/dL; LDH (ICR mice [4]; [6]): 894 U/L; Lactate (ICR mice [4]; [6]): 5.15 ± 0.30 µmol/L
CN(CC(=O)O)C(=N)N.O [Cr, Creatine monohydrate, reference compound]	104.6 ± 14.4 % of control group	116.2 ± 11.4 % of control group	114.0 ± 11.1 % of control group	151.5 ± 41.0 % of control group	1.09 ± 0.13	1.20 ± 0.26	1.11 ± 0.10	1.15 ± 0.29	0.93 ± 0.20	0.48 ± 0.07	0.059 ± 0.004 g/100 g body weight	1.078 ± 0.028^ g/100 g body weight	0.873 g/100 g body weight	0.061 g/100 g body weight	0.022 ± 0.001 g	0.409 ± 0.012 g	0.330 g	0.023 g	0.363 mg/dL	BUN (ICR mice [4]; [7]): 7.84 ± 0.47 mg/dL; CK (ICR mice [4]; [7]): 521.5 U/L; LDH (ICR mice [4]; [7]): 1,169 U/L; Lactate (ICR mice [4]; [7]): 5.30 ± 0.41^++ μmol/L
